# According to US5221616A, “Prevention of spontaneous complement activation in mammalian biological fluids” (Quidel Corporation, priority 1988, dated 1993):
# Columns and labels:
# [1] = tested on: C4; assay: polyhydroxyl compounds in Buffer B mixed with EDTA-NHP: C4d fragment EIA; assay type: biochemical, human; conditions: final concentration 2M, 22° C. for 48 hr
# Method: An extensive series of experiments were conducted to examine the ability of a large variety of polyhydroxyl compounds to prevent the spontaneous activation of C in EDTA-NHP during in vitro storage at 22° C for 48 hr. EDTA-NHP was mixed with an equal volume of Buffer B containing the polyhydroxyl compound to be tested. In these experiments Buffer B consisted of 40 mM EDTA and 30 IU sodium heparin/mL dissolved in deionized water, pH 7.2. The final concentration of polyhydroxyl compound dissolved in Buffer B varied for each compound due to differences in solubility. For each set of experiments, EDTA-NHP was also diluted and mixed with an equal volume of PBS (untreated control). The EDTA-NHP samples mixed with each polyhydroxyl compound dissolved in Buffer B and the corresponding untreated controls were incubated at 22° C. for 48 hr, stored at -70° C. and subsequently assayed for C4d, iC3b, C3d,g/iC3b and Bb complement fragment levels as well as for circulating immune complex levels using the Raji Cell Replacement EIA. […] This conclusion was based upon the iC3b percent protection values determined for each of the polyhydroxyl compounds (treated samples) as listed in FIG. 14.
# (§1) The concentrations, expressed as μg analyte/mL, of a number of different activation products of spontaneous complement activation were measured in the course of these experiments. In an effort to normalize the data obtained from the various determinations so that the results from different assays could be directly compared to one another, a percent protection value was calculated for each analyte measured. The precent protection values were calculated by dividing the μg analyte/mL in the non-incubated, time-zero control sample by the μg analyte/mL in the experimental sample, multiplied by 100%. A percent protection value of 70 to 130% for any given analyte measured in an experimental sample was considered to indicate that the invention formulation tested was fully effective at providing protection against the occurrence of spontaneous complement activation. Ideally, the effective composition formulation would provide full protection against the occurrence of spontaneous complement activation in a complement-containing sample for all of the analytes measured. In fact, this was the case with several polyhydroxyl compounds when they were present in sufficiently high concentrations in a preferred embodiment of the invention.
# [2] = tested on: complement; assay: protection against spontaneous complement activation in complement-containing samples during in vitro storage (summary of fragment EIAs); assay type: biochemical, human
# Method: A method for screening compounds to determine the complement preventing effectiveness thereof is described in detail in the course of the following experimental description and discussion. The method essentially comprises treating complement-containing samples with various doses of the test compounds, storing the thus-treated sample at conventional storage temperature for a minimum of about 48 hours and determining the extent of complement activation which occurs during the storage period by performing assays on the sample for various complement activation products. The results are compared with determination of the level of the same activation products at the beginning of the storage period, i.e., a non-incubated control sample. A non-treated control, comprising an identical sample diluted with phosphate buffered saline (PBS) in a volume ratio identical to that of the sample and polyhydroxyl solution is similarly assayed.
# as §1
# A percent protection value range of 70 to 130% was used as a criterion to define that a given invention embodiment was able to provide full protection against spontaneous complement activation for the following reasons: The coefficient of variation for the EIA kits employed in these studies ranged from 10-30% when analyte levels were measured in the very low range of values found in freshly-drawn normal human plasma samples. Therefore, in order to ensure that a given result fell within the variability range of the assays employed, a percent protection value between 70 and 130% was considered to represent a fully protective effect.
smiles,measurement,setting,value
OC[C@H]1O[C@@H](O)[C@H](O)[C@@H](O)[C@@H]1O [β-D-glucose],prevention of spontaneous activation of C4 (C4d fragment production),[1],completely prevented
same,final concentration identified as particularly effective,[2]; added to a complement-containing sample,≥ 1.33 M
same,range of final concentrations found to provide protection against spontaneous complement activation,[2]; complement-containing samples during in vitro storage,0.5 to 4 M
same,acceptable range of final concentration at which spontaneous C activation will be prevented,[2]; ingredient of the formulation,≥ 1.3 M
